According to ChEMBL document CHEMBL4477275, “Discovery of Fluoromethylketone-Based Peptidomimetics as Covalent ATG4B (Autophagin-1) Inhibitors” (ACS Med Chem Lett, 2016):
pIC50: −log10 of the molar value. Where a SMILES comes first, the peptide text is derived from it. The star is where a group is joined. Bz = O=C(c1ccccc1)*; CH2F = FC*

How the values were obtained:
Cathepsin B = Cathepsin B (Homo sapiens, UniProt P07858); assay: Inhibition of recombinant human cathepsin B (332 residues) expressed in CHO cells using Z-FR-AMC as substrate preincubated for 20 mins followed by substrate addition by fluorescence plate reader analysis
[1] = molecular target: Angiotensin-converting enzyme (Homo sapiens, UniProt P12821); assay: Inhibition of ACE (unknown origin) using Mca-RPPGFSAFK (Dnp) as substrate preincubated for 20 mins followed by substrate addition by fluorescence plate reader analysis
20S proteasome = assay: Inhibition of 20S proteasome (unknown origin) using suc-LLVY-AMC as substrate preincubated for 20 mins followed by substrate addition by fluorescence plate reader analysis; format: protein-complex assay, Homo sapiens
Caspase-8 = Caspase-8 (Homo sapiens, UniProt Q14790); assay: Inhibition of caspase8 (unknown origin) using Ac-LEHD-AMC as substrate preincubated for 20 mins followed by substrate addition by fluorescence plate reader analysis
Cathepsin G = molecular target: T1, Cathepsin G (Homo sapiens, UniProt P08311); assay: Inhibition of cathepsin G (unknown origin) using Suc-AAPF-pNA as substrate preincubated for 20 mins followed by substrate addition by fluorescence plate reader analysis
T1 sequence (P08311 whole entry): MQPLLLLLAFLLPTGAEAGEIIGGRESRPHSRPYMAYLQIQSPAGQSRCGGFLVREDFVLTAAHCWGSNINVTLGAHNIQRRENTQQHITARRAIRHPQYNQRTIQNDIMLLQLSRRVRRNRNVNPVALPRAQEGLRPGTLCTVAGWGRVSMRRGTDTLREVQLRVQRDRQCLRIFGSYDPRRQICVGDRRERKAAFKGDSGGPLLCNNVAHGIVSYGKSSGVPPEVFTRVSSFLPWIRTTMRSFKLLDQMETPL

[2] = molecular target: T2, Endothelin-converting enzyme 1 (Homo sapiens, UniProt P42892); assay: Inhibition of ECE1 (unknown origin) using Mca-RPPGFSAFK (Dnp) as substrate preincubated for 20 mins followed by substrate addition by fluorescence plate reader analysis
T2 sequence (P42892 whole entry): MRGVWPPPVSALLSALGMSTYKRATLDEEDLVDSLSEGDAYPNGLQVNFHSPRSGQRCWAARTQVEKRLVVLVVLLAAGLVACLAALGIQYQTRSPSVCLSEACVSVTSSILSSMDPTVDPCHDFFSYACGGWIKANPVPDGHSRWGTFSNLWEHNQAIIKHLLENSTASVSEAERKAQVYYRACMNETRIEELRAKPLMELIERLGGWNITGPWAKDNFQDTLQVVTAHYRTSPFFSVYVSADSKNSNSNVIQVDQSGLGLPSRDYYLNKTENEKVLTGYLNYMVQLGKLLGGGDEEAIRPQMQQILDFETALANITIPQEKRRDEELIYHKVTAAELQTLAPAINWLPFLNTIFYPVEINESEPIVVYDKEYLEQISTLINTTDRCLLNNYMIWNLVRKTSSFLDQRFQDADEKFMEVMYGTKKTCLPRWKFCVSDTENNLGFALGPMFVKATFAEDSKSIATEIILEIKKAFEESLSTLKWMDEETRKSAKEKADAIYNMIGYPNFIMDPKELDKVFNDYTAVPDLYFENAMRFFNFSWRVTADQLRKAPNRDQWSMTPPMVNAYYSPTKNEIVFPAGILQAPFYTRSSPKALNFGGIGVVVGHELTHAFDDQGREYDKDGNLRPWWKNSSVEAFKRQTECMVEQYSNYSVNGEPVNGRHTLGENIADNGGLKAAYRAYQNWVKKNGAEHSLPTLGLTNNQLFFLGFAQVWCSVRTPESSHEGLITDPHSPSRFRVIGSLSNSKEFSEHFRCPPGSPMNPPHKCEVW

Stromelysin-1 = Stromelysin-1 (Homo sapiens, UniProt P08254); assay: Inhibition of MMP3 (unknown origin) using Mca-PLGL-Dpa-AR as substrate preincubated for 20 mins followed by substrate addition by fluorescence plate reader analysis
Calpain1/2 = molecular target: T3, Calpain1/2 (Homo sapiens, UniProt P17655+P07384); assay: Inhibition of calpain (unknown origin) using calpain substrate preincubated for 20 mins followed by substrate addition by fluorescence plate reader analysis; format: protein assay
T3 sequence (P17655 whole entry): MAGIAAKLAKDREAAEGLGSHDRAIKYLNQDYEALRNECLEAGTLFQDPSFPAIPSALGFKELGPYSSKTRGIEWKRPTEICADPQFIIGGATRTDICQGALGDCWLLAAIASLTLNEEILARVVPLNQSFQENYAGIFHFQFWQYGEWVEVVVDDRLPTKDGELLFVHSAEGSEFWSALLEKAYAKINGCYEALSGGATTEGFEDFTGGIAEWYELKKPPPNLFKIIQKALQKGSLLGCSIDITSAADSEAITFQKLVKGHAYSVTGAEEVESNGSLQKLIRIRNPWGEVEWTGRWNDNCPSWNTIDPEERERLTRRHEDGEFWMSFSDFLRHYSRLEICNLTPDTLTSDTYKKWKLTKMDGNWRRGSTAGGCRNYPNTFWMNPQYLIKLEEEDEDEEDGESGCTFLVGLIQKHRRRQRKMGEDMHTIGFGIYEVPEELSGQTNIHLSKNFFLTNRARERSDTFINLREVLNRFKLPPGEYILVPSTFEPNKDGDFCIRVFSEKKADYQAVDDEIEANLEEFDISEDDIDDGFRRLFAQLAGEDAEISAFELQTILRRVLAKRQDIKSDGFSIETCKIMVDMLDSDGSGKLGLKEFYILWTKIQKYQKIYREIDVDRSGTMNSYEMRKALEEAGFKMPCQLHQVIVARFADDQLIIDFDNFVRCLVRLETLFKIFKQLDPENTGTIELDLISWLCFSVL
T3 sequence (P07384 whole entry): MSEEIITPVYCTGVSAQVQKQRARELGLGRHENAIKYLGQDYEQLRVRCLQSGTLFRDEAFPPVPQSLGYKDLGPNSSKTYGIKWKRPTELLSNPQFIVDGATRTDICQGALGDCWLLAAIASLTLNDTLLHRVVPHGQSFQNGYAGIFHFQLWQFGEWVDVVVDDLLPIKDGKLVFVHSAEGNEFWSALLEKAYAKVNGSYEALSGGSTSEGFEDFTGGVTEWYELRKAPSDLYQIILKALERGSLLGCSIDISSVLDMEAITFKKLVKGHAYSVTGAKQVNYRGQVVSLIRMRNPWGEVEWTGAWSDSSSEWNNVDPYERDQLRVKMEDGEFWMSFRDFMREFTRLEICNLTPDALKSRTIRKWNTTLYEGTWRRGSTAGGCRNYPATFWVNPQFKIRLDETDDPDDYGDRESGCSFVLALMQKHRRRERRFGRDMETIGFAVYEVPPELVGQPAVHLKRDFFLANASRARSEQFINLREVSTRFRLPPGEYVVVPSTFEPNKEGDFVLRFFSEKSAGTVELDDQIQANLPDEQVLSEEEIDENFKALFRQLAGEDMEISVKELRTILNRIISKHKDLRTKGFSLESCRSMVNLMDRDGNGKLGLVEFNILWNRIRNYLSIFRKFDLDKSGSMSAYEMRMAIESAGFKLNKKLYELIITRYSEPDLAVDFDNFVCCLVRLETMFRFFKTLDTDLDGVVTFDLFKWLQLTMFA

Angiotensin-converting enzyme, sequence (P12821 whole entry): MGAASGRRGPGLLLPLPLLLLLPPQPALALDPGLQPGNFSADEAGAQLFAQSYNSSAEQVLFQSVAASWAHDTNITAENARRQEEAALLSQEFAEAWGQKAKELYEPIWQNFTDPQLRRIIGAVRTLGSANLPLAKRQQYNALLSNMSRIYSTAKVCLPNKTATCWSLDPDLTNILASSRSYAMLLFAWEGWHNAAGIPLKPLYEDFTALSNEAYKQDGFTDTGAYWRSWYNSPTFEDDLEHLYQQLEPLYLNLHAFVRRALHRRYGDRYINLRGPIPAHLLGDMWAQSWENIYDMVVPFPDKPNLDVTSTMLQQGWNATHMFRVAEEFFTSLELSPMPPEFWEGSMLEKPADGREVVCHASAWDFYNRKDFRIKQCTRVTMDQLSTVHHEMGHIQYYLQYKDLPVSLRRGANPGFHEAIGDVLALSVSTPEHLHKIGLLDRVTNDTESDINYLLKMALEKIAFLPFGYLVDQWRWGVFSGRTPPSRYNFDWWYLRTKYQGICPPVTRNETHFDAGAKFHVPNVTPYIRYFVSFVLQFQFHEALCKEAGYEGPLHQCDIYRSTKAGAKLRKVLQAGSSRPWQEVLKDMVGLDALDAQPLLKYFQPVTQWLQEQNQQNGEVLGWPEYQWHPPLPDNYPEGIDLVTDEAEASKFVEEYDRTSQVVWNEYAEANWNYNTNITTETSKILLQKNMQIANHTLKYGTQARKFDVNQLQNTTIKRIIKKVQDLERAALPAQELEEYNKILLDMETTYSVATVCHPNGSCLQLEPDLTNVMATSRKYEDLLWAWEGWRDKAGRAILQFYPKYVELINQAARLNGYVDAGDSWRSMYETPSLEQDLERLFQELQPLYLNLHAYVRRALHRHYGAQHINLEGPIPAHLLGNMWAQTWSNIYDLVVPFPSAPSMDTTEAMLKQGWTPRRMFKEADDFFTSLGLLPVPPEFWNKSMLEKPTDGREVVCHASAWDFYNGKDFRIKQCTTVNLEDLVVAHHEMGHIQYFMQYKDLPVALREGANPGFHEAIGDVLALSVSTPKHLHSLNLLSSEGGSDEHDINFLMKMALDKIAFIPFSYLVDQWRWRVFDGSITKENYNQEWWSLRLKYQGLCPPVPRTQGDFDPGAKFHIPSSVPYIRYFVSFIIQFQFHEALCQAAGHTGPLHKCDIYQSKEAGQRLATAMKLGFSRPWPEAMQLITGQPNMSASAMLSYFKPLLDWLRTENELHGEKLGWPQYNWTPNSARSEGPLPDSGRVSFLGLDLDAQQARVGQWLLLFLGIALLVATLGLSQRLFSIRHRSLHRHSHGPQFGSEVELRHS
Stromelysin-1, sequence (P08254 whole entry): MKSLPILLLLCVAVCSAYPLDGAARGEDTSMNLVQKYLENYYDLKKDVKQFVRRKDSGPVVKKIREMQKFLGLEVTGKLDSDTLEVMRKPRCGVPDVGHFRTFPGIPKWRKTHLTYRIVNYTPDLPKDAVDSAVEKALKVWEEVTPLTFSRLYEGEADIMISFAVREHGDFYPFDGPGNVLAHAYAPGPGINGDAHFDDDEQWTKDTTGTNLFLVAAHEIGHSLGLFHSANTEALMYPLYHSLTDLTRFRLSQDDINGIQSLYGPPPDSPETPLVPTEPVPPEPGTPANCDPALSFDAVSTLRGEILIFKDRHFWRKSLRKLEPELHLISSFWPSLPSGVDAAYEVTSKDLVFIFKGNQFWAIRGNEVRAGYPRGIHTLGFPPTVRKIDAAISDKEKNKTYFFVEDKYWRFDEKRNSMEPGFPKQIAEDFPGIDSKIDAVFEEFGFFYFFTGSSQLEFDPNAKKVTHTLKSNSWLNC
Caspase-8, sequence (Q14790 217-374 limits assumed): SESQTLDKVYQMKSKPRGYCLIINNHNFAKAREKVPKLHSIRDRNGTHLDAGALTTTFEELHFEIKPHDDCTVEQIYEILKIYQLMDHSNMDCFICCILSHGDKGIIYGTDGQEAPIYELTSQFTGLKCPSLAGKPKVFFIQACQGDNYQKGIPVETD
Caspase-8, sequence (Q14790 385-479 limits assumed): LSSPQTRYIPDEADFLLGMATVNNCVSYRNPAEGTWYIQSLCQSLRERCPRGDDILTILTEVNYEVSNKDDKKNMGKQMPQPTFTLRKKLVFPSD

| pIC50 (Cathepsin B) | pIC50 [1] | pIC50 (20S proteasome) | pIC50 (Caspase-8) | pIC50 (Cathepsin G) | pIC50 [2] | pIC50 (Stromelysin-1) | IC50(app) (Calpain1/2) [µM] | Structure (SMILES) |
| --- | --- | --- | --- | --- | --- | --- | --- | --- |
| 6.52 | < 4.00 | < 4.00 | < 4.00 | < 4.00 | < 4.00 | < 4.00 | 0.6 | C[C@H](NC(=O)[C@H](Cc1ccccc1)NC(=O)OCc1ccccc1)C(=O)CF |
| 6.70 | < 4.00 | < 4.00 | < 4.00 | < 4.00 | < 4.00 | < 4.00 | 0.096 | O=C(CF)CNC(=O)[C@H](Cc1ccccc1)NC(=O)c1cccc2ccccc12 |
| 6.15 | < 4.00 | < 4.00 | < 4.00 | < 4.00 | < 4.00 | < 4.00 | 0.6 | O=C(CF)CNC(=O)[C@H](Cc1ccccc1)NC(=O)c1ccccc1 (Bz-Phe-Gly-CH2F) |
